# US5594006A, “Carbostyril derivatives as matrix metalloproteinases inhibitors” (Otsuka Pharmaceutical Co., Ltd., priority 1993, dated 1997)
# Experiments:
# Interstitial collagenase = target: T1, Interstitial collagenase (Homo sapiens, UniProt P03956); assay: Interstitial collagenase inhibiting activity (fluorescence labeled collagen); format: biochemical; settings: from human fibroblast cell (Detroit 551); 2 hours at 35° C., pH 7.5
# T1 construct: endogenous in cells; host or cells: Detroit 551 (human fibroblasts), culture supernatant, purified
# T1 sequence (P03956 100-469): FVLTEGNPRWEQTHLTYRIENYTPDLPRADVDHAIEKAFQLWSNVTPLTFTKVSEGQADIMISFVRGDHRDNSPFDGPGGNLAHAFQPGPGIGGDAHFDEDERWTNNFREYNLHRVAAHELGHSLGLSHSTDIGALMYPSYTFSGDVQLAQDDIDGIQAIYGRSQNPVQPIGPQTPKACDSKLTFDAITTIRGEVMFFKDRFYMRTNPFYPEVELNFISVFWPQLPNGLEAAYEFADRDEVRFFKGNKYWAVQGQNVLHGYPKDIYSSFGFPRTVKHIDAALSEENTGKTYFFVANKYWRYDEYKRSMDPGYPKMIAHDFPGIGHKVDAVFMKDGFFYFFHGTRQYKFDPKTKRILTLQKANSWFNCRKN
# Method: (2) Measuring Method of Interstitial Collagenase Inhibiting Activity
# Inhibiting of interstitial collagenase refined from the culture supernatant of human fibroblast cell (Detroit 551 cell) was measured by using fluorescence labeled collagen, according to the method proposed by Nagai et al. [Inflammation, 4 (2), 123 (1984)].
# The enzyme was activated by incubating for 3 hours at 37° C. in 1 mM mercury (II) p-aminophenylacetate. The test compound was used by dissolving in dimethyl sulfoxide. The enzyme reaction was started by adding the activated enzyme in 50 mM TRIS-hydrochloric acid (pH 7.5), 0.2M NaCl, 5 mM CaCl2, 0.02% (w/v) NaN3, 2.5 mM acetic acid, and 0.1% (v/v) dimethyl sulfoxide solution containing the test compound and 0.025% (w/v) of fluorescence labeled collagen as substrate. The reaction was conducted for 2 hours at 35° C., and stopped by adding ice-chilled 80 mM O-phenanthroline, 50% (v/v) ethanol solution by 1/20 amount. To this, moreover, an equivalent volume of 50 mM TRIS-hydrochloric acid (pH 7.5), 0.2M NaCl, 5 mM CaCl2, 0.02% (w/v) NaN3 solution was added to incubate further for 1 hour at 35° C. to degenerate specifically only the digestion product, and the digestion product was extracted by adding 0.17M TRIS-hydrochloric acid (pH 9.5), 0.67M NaCl solution including an equivalent amount of 70% (v/v) ethanol, and afterwards, by centrifugal separation for 15 minutes at 3000 rpm, 4° C., the undigested substrate was precipitated. The fluorescence intensity of the obtained supernatant was measured at 520 nm (Em)/495 nm (Ex), and the decomposition volume was quantitatively determined.
# (§1) The enzyme inhibiting activity was expressed by the concentration (IC50) of the test compound wherein the enzyme activity of known amount was inhibited till 50%.
# Stromelysin = target: T2, Stromelysin (Mus musculus, UniProt P28862); assay: Stromelysin inhibiting activity (fluorescence labeled casein); format: biochemical; settings: from mouse colon cancer cell (Colon 26); 3 hours at 37° C., pH 7.5
# T2 construct: endogenous in cells; host or cells: Colon 26 (mouse colon cancer cells), culture supernatant, purified
# T2 sequence (P28862 100-477): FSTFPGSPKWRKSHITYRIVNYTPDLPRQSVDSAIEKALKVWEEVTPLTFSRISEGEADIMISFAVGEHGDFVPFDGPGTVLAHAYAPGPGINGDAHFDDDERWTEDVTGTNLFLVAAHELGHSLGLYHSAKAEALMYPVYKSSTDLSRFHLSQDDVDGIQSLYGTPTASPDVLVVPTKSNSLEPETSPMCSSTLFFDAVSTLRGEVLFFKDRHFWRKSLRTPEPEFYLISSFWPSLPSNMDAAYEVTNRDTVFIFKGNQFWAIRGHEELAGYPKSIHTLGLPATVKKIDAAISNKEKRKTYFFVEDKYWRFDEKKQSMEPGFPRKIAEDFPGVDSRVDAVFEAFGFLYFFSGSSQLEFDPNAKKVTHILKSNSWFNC
# Method: (1) Measuring Method of Stromelysin Inhibiting Activity
# Inhibiting of Stromelysin refined from the culture supernatant of mouse colon cancer cell (Colon 26 cell) was measured by using fluorescence labeled casein, according to the method proposed by Miyazaki et al. (J. Biochem., 108, 537-543, 1990), and S. S. Twining [Fed. Proc., 42, 1951 (1984)].
# The enzyme was activated by incubating for 2 hours at 37° C. in 1 mM mercury (II) p-aminophenylacetate. The test compound was used by dissolving in dimethyl sulfoxide. The enzyme reaction was started by adding the activated enzyme in a solution of 50 mM TRIS-hydrochloric acid (pH 7.5), 10 mM CaCl2, and 0.1% (v/v) dimethyl sulfoxide containing the test compound and 0.25% (w/v) of fluorescence labeled casein as substrate. The reaction was conducted for 3 hours at 37° C., and stopped by adding an equivalent amount of 5% (w/v) trichloroacetic acid solution. Afterwards, by centrifugal separation for 15 minutes at 3000 rpm, 4° C., the undigested substrate was precipitated, and to 1 part by volume of the obtained supernatant, 4 parts by volume of 0.3M phosphate buffer (pH 8.5) was added, and the fluorescence intensity was measured at 520 nm (Em)/495 nm (Ex), and the decomposition volume was quantitatively determined.
# as §1
IC50 (Interstitial collagenase),IC50 (Stromelysin),SMILES
88 nM,,"COCCOCN1C(=O)[C@@H](NC(=O)[C@@H](CC(=O)NO)CC(C)C)Cc2ccccc21 [Test compound 18, 3S-[4-(N-hydroxyamino)-2R-isobutylsuccinyl]amino-1-methoxyethoxymethyl-3,4-dihydrocarbostyril]"
31 nM,200 nM,"CC(C)C[C@H](CC(=O)NO)C(=O)N[C@H]1Cc2ccccc2N(CC(N)=O)C1=O [Test compound 10, 1-aminocarbonylmethyl-3S-[4-(N-hydroxyamino)-2R-isobutylsuccinyl]amino-3,4-dihydrocarbostyril]"
110 nM,,"COCCN1C(=O)[C@@H](NC(=O)[C@@H](CC(=O)NO)CC(C)C)Cc2ccccc21 [Test compound 21, 3S-[4-(N-hydroxyamino)-2R-isobutylsuccinyl]amino-1-methoxyethyl-3,4-dihydrocarbostyril]"
160 nM,380 nM,"CCOC(=O)CN1C(=O)[C@@H](NC(=O)[C@@H](CC(=O)NO)CC(C)C)Cc2ccccc21 [Test compound 8, 1-ethoxycarbonylmethyl-3S-[4-(N-hydroxyamino)-2R-isobutylsuccinyl]amino-3,4-dihydrocarbostyril]"
0.064 nM,,"CON1C(=O)[C@@H](NC(=O)[C@H](CC(C)C)C(Cc2ccc3c(c2)OCO3)C(=O)NO)Cc2ccccc21 (stereo partly drawn) [Test compound 23, 3S-[4-(N-hydroxyamino)-2R-isobutyl-3-(3,4-methylenedioxybenzyl)succinyl]amino-1-methoxy-3,4-dihydrocarbostyril]"
22 nM,36 nM,"CON1C(=O)[C@@H](NC(=O)[C@H](CC(C)C)[C@H](C)C(=O)NO)Cc2ccccc21 [Test compound 9, 3S-[4-(N-hydroxyamino)-2R-isobutyl-3S-methylsuccinyl]amino-1-methoxy-3,4-dihydrocarbostyril]"
370 nM,,"COCON1C(=O)[C@@H](NC(=O)[C@@H](CC(=O)NO)CC(C)C)Cc2ccccc21 [Test compound 31, 3S-[4-(N-hydroxyamino)-2R-isobutylsuccinyl]amino-1-methoxymethoxy-3,4-dihydrocarbostyril]"
20 nM,,"C#CCN1C(=O)[C@@H](NC(=O)[C@H](CC(C)C)[C@H](C)C(=O)NO)Cc2ccccc21 [Test compound 15, 3S-[4-(N-hydroxyamino)-2R-isobutyl-3S-methylsuccinyl]amino-1-(2-propynyl)-3,4-dihydrocarbostyril]"
740 nM,,"COCCN1C(=O)[C@@H](NC(=O)[C@@H](CC(=O)NO)CC(C)C)Cc2cc3c(cc21)OCO3 [Test compound 24, 3S-[4-(N-hydroxyamino)-2R-isobutylsuccinyl]amino-1-methoxyethyl-6,7-methylenedioxy-3,4-dihydrocarbostyril]"
22 nM,37 nM,"COCN1C(=O)[C@@H](NC(=O)[C@@H](CC(=O)NO)CC(C)C)Cc2ccccc21 [Test compound 14, 3S-[4-(N-hydroxyamino)-2R-isobutylsuccinyl]amino-1-methoxymethyl-3,4-dihydrocarbostyril]"
4100 nM,,"COCCN1C(=O)[C@H](NC(=O)[C@@H](CC(=O)NO)CC(C)C)Cc2cc3c(cc21)OCO3 [Test compound 25, 3R-[4-(N-hydroxyamino)-2R-isobutylsuccinyl]amino-1-methoxyethyl-6,7-methylenedioxy-3,4-dihydrocarbostyril]"
11 nM,,"CCCCC[C@H](CC(=O)NO)C(=O)N[C@H]1Cc2ccccc2N(OC)C1=O [Test compound 30, 3S-[4-(N-hydroxyamino)-2R-pentylsuccinyl]amino-1-methoxy-3,4-dihydrocarbostyril]"
69 nM,,"CC(C)C[C@@H](C(=O)N[C@H]1Cc2ccccc2N(CC(=O)O)C1=O)[C@H](C)C(=O)NO [Test compound 16, 1-carboxymethyl-3S-[4-(N-hydroxyamino)-2R-isobutyl-3S-methylsuccinyl]amino-3,4-dihydrocarbostyril]"
3700 nM,,"CCOCC[C@H](CC(=O)NO)C(=O)N[C@H]1Cc2ccccc2N(OC)C1=O [Test compound 22, 3S-[4-(N-hydroxyamino)-2R-ethoxyethylsuccinyl]amino-1-methoxy-3,4-dihydrocarbostyril]"
87 nM,,"CCN1C(=O)[C@@H](NC(=O)[C@@H](CC(=O)NO)CC(C)C)Cc2cc3c(cc21)OCO3 [Test compound 28, 1-ethyl-3S-[4-(N-hydroxyamino)-2R-isobutylsuccinyl]amino-6,7-methylenedioxy-3,4-dihydrocarbostyril]"
220 nM,,"CCCCCCC[C@H](CC(=O)NO)C(=O)N[C@H]1Cc2ccccc2N(OC)C1=O [Test compound 20, 3S-[4-(N-hydroxyamino)-2R-heptylsuccinyl]amino-1-methoxy-3,4-dihydrocarbostyril]"
750 nM,290 nM,"COC(=O)c1ccc(CN2C(=O)[C@@H](NC(=O)[C@@H](CC(=O)NO)CC(C)C)Cc3ccccc32)cc1 [Test compound 11, 3S-[4-(N-hydroxyamino)-2R-isobutylsuccinyl]amino-1-(4-methoxycarbonylbenzyl)-3,4-dihydrocarbostyril]"
41 nM,,"CCON1C(=O)[C@@H](NC(=O)[C@@H](CC(=O)NO)CC(C)C)Cc2ccccc21 [Test compound 17, 1-ethoxy-3S-[4-(N-hydroxyamino)-2R-isobutylsuccinyl]amino-3,4-dihydrocarbostyril]"
1000 nM,,"COCCN1C(=O)C(NC(=O)[C@@H](CC(=O)NO)CC(C)C)Cc2cc3c(cc21)OCO3 (stereo partly drawn) [Test compound 26, 3-[4-(N-hydroxyamino)-2R-isobutylsuccinyl]amino-1-methoxyethyl-6,7-methylendioxy-3,4-dihydrocarbostyril]"
290 nM,700 nM,"CCN1C(=O)[C@@H](NC(=O)[C@@H](CC(=O)NO)CC(C)C)Cc2ccccc21 [Test compound 12, 1-ethyl-3S-[4-(N-hydroxyamino)-2R-isobutylsuccinyl]amino-3,4-dihydrocarbostyril]"
10 nM,28 nM,"C=CCN1C(=O)[C@@H](NC(=O)[C@H](CC(C)C)[C@H](C)C(=O)NO)Cc2ccccc21 [Test compound 13, 1-allyl-3S-[4-(N-hydroxyamino)-2R-isobutyl-3S-methylsuccinyl]amino-3,4-dihydrocarbostyril]"
